Measurements: publication PMC6009892, “A novel series of pyrazole-platinum(II) complexes as potential anti-cancer agents that induce cell cycle arrest and apoptosis in breast cancer cells” (Journal of Enzyme Inhibition and Medicinal Chemistry, 2018)
Like-named read-outs stand apart in the source and are kept apart here.

Assays:
[1] = test system: MCF-7 breast cancer cells; test: Mitochondrial membrane potential JC-1, MCF-7; type: cell-based, human; settings: MCF-7, 20 μM, 24 h; untreated 7.4%
Protocol: Disruption of the MMP was assessed using the lipophilic cationic probe 5,5′,6,6′-tetrachloro-1,1′,3,3′-tetraethylbenzimidazolcarbocyanine iodide (JC-1 MitoScreen kit; BD Biosciences Systems, San Jose, CA), as described previously. Briefly, unfixed cells were washed and re-suspended in PBS supplemented with 10 µg/ml of JC-1. Cells were then incubated for 15 min at room temperature in the dark, washed, and re-suspended in PBS for immediate BD FACSCanto II flow cytometry analysis. The percentage of cells with disrupted MMP was calculated using FACSDiva software (both from BD Biosciences Systems, San Jose, CA).

[2] = test system: MDA-MB-231 breast cancer cells; test: MTT cell viability assay, MDA-MB-231; type: cell-based, human
Protocol: MCF-7, MDA-MB-231 (both human breast cancer cell lines), and fibroblast cells were obtained from American Type Culture Collection (ATCC, Manassas, VA, USA). DMEM and FBS used in a cell culture were from Gibco (USA). Glutamine, penicillin, and streptomycin were obtained from Quality Biologicals Inc. (USA). DMEM media was blended with 50 units/ml of penicillin, 50 μg/ml of streptomycin, 10% of FBS. All cell lines were cultured in 5% CO2 and fully humidified at 37 °C. Cells were cultured in Costar flasks and sub-confluent cells were detached with 0.05% trypsin and 0.02% ethylenediaminetetraacetic acid in calcium-free phosphate-buffered saline (PBS), counted in hemocytometers, and plated at 5 × 10^5 cells/well of six-well plates (Thermo Scientific, New York, NY, USA) in 2 ml of growth medium (DMEM without phenol red with 10% CPSR1). Cells reached about 80% of confluency at day 2, and in most cases such cells were used for the assays.
The viability of cultured cells was decided through assaying the reduction of MTT to formazan. In brief, MCF-7, MDA-MB-231, and fibroblast cells line were seeded at an initial density of 1 × 10^5 cells per well. Then, the cells were incubated at 37 °C for 24 h. Subsequently, cultured cells were treated with a medium containing concentrations (5, 10, 20, 30, 40, and 50 μM) of PtPz1–PtPz6 for 24 h and 48 h. After the incubation period, MTT was added into all wells in the final concentration of 0.5 mg/ml. After that, the cells were incubated at 37 °C for 4 h. Then, by removing the medium, 200 μl of DMSO was added to all wells. As a result, insoluble formazan was dissolved in DMSO (0.5%). At 570 nm (630 nm as a reference), the absorbance was measured in an Evolution 201 reader (Thermo Scientific, Waltham, MA).

[3] = test system: caspase-8 in MDA-MB-231 breast cancer cells; test: FLICA caspase-8 activity, flow cytometry, MDA-MB-231; type: cell-based, human; settings: MDA-MB-231, 20 μM, 24 h
Protocol: Caspase-8 activity was measured using the FLICA Caspase 8 Assay Kit (ImmunoChemistry Technologies, Bloomington, MN, USA), according to the manufacturer’s instructions. Briefly, cultured MCF-7 and MDA-MB-231 breast cancer cells (1 × 10^6) were washed with cold PBS twice and re-suspended in buffer. We added 5 µl of diluted FLICA reagent and 2 µl of Hoechst 33342 to 93 µl of cell suspension and mixed by pipetting. The cells were incubated for 60 min at 37°C. After incubation, the cells were washed twice in 400 µl of apoptosis wash buffer and centrifuged at 300 × g. After the last wash, we re-suspended the cells in 100 µl of apoptosis wash buffer supplemented with 10 µg/ml PI. Analysis was performed using the BD FACSCanto II flow cytometer, and the results were analysed with FACSDiva software (both from BD Biosciences Systems, San Jose, CA).

[4] = test system: MCF-7 breast cancer cells; test: Cell cycle analysis by flow cytometry (PI), MCF-7; type: cell-based, human; settings: breast cancer cells (MCF-7), 20 μM, 24 h, versus control
Protocol: Distribution of cell cycle phases was analysed by flow cytometry. Briefly, MCF-7 and MDA-MB-231 cells were seeded into six-well plates at a density of 2.5 × 10^5 cells per well and treated with 20 μM of PtPz1–PtPz6 for 24 h. After incubation, the cells were harvested and then fixed with 1 ml of 70% ethanol and kept overnight at −20 °C. Before analysis, the cells were re-suspended in PBS, treated with 50 μg/ml of DNase-free RNase A Solution (Promega), and stained with 100 μg/ml of PI. The FACSCanto II flow cytometer (BD Biosciences Systems, San Jose, CA) was used to read the fluorescence.

[5] = test system: human G1/S-specific cyclin D1 in MDA-MB-231 cells; test: Cyclin D1 ELISA in cell lysates, MDA-MB-231; type: cell-based; settings: MDA-MB-231, 20 μM, 24 h
Protocol: Cell lysates: Briefly, trypsinised cells were washed three times with cold PBS and centrifuged at 1000 g for 5 min at 4 °C. The cells (1 × 10^6) were suspended in lysis buffer for whole cell lysates. After centrifugation, the supernatants were frozen immediately at −70 °C. The concentration of human G1/S-specific cyclin D1 was measured. Cells without addition of compounds were treated as controls.
Determination of human G1/S-specific cyclin D1: The high sensitivity assay kit (EIAab) was used to determine the concentration of human G1/S-specific cyclin D1 in cell lysates. The microtiter plate provided in this kit has been pre-coated with an antibody specific to cyclin D1. Standards and samples were added to the appropriate microtiter plate wells. After 2 h of incubation at 37 °C, the plate was incubated with biotin-conjugated antibody for 1 h at 37 °C. Then microplate wells were aspirated and washed three times and then incubated with avidin conjugated to horseradish peroxidase (HRP). Then, a TMB substrate solution was added to each well. […] The enzyme–substrate reaction was terminated by the addition of a sulfuric acid solution and the color change was measured spectrophotometrically at a wavelength of 450 nm ± 2 nm. The concentration of cyclin D1 in the samples was determined by comparing the O.D. of the samples to the standard curve.

[6] = test system: MDA-MB-231 breast cancer cells; test: Annexin V-FITC/PI flow cytometry, MDA-MB-231; type: cell-based, human; settings: MDA-MB-231, 20 μM, 24 h; for percent of cells with early and late apoptosis: control 7.1%
Protocol: (§1) To characterise the mode of cell death induced by PtPz1–PtPz6, a flow cytometry analysis was performed using Apoptosis Detection Kit II (BD Pharmingen, San Diego, CA), according to the manufacturer’s instructions. Cells (10000 cells measured) were analysed in a flow cytometer (BD FACSCanto II flow cytometer, San Jose, CA). Annexin V bound with high affinity to phosphatidylserine and thus could be used to identify cells in all stages of the programmed cell death. Propidium iodide (PI) stained cells with a disrupted cell membrane, and it could be used to identify late apoptotic and dead cells. Cells cultured in a drug-free medium were used as controls. […] Results were analysed with FACSDiva software (BD Biosciences Systems, San Jose, CA).

[7] = test system: MCF-7 breast cancer cells; test: Annexin V-FITC/PI flow cytometry, MCF-7; type: cell-based, human; settings: MCF-7, 20 μM, 24 h; for percent of cells with early and late apoptosis: control 8.5%
Protocol: as §1

[8] = MDA-MB-231, 24 h incubation, 5-50 μM, read-out: IC50 (cell viability, MTT)
[9] = MDA-MB-231, 48 h incubation, 5-50 μM, read-out: IC50 (cell viability, MTT)

| Compound | percent of cells with decrease ΔΨm [1] | IC50 [2, 8] | IC50 [2, 9] | increase in caspase-8 activity compared with the control [3] | percent of cells with active caspase-8 [3] | accumulation of cells in G2/M phase [4] | concentration of cyclin D1 [5] | percent of cells with early and late apoptosis [6] | viable cells ([6]; control 91.6%) | percent of cells with early and late apoptosis [7] | viable cells ([7]; control 89.7%) | IC50 ([2]; read-out: IC50 (additional test for cisplatin), MDA-MB-231, 24 h, additional test in concentrations allowing to determine IC50) | IC50 ([2]; read-out: IC50 (additional test for cisplatin), MDA-MB-231, 48 h, additional test in concentrations allowing to determine IC50) |
| --- | --- | --- | --- | --- | --- | --- | --- | --- | --- | --- | --- | --- | --- |
| Cc1cc(C)[n+]([Pt-2]2([n+]3c(C)cc(C)n3CO)[N](c3ccc(C(=N)N)cc3)N=[N+](c3ccc(C(=N)N)cc3)[Pt-2]([n+]3c(C)cc(C)n3CO)([n+]3c(C)cc(C)n3CO)[N](c3ccc(C(=N)N)cc3)N=[N+]2c2ccc(C(=N)N)cc2)n1CO.Cl.Cl.Cl.Cl.O.O [PtPz1, [Pt2(N-hydroxymethyl-3,5-dimethylpyrazole)4(berenil)2]·4HCl·2H2O] | 91.7% | 16 ± 1 µM | 10 ± 1 µM | about 10 fold | 48.9% | 2.0 fold |  |  |  |  |  |  |  |
| Cc1cc(C)[n+]([Pt-2]2([n+]3[nH]c(C)cc3C)[N](c3ccc(C(=N)N)cc3)N=[N+](c3ccc(C(=N)N)cc3)[Pt-2]([n+]3[nH]c(C)cc3C)([n+]3[nH]c(C)cc3C)[N](c3ccc(C(=N)N)cc3)N=[N+]2c2ccc(C(=N)N)cc2)[nH]1.Cl.Cl.Cl.Cl.O.O [PtPz2, [Pt2(3,5-dimethylpyrazole)4(berenil)2]·4HCl·2H2O] | 90.0% | 17 ± 2 µM | 11 ± 1 µM | about 10 fold | 45.8% | 2.0 fold |  |  |  |  |  |  |  |
| Cc1c[nH][n+]([Pt-2]2([n+]3[nH]cc(C)c3C)[N](c3ccc(C(=N)N)cc3)N=[N+](c3ccc(C(=N)N)cc3)[Pt-2]([n+]3[nH]cc(C)c3C)([n+]3[nH]cc(C)c3C)[N](c3ccc(C(=N)N)cc3)N=[N+]2c2ccc(C(=N)N)cc2)c1C.Cl.Cl.Cl.Cl.O.O [PtPz3, [Pt2(3,4-dimethylpyrazole)4(berenil)2]·4HCl·2H2O] | 86.2% | 20 ± 2 µM | 16 ± 1 µM |  | 38.0% | 2.0 fold |  |  |  |  |  |  |  |
| Cc1ccn[nH]1.Cc1ccn[nH]1.Cc1ccn[nH]1.Cc1ccn[nH]1.Cl.Cl.Cl.Cl.N=C(N)c1ccc(N=N[N]([Pt])c2ccc(C(=N)N)cc2)cc1.N=C(N)c1ccc(N=N[N]([Pt])c2ccc(C(=N)N)cc2)cc1.O.O [PtPz5, [Pt2(5-methylpyrazole)4(berenil)2]·4HCl·2H2O] |  | 29 ± 1 µM | 19 ± 2 µM |  | 37.9% |  | 0.7 ng/mL |  |  |  |  |  |  |
| CCn1ccc[n+]1[Pt-2]1([n+]2cccn2CC)[N](c2ccc(C(=N)N)cc2)N=[N+](c2ccc(C(=N)N)cc2)[Pt-2]([n+]2cccn2CC)([n+]2cccn2CC)[N](c2ccc(C(=N)N)cc2)N=[N+]1c1ccc(C(=N)N)cc1.Cl.Cl.Cl.Cl.O.O [PtPz6, [Pt2(N-ethylpyrazole)4(berenil)2]·4HCl·2H2O] |  | > 50 µM | 39 ± 2 µM |  | 21.1% |  |  | 18.6% | 79.4% | 17.2% | 80.9% |  |  |
| N.N.[Cl][Pt][Cl] [cisplatin, reference compound] |  | > 50 µM | > 50 µM |  | 9.7% |  |  | 10.1% |  | 10.4% |  | 82 ± 2 µM | 72 ± 1 µM |
